According to BigSolDB 2.1:

Work on `COc1c(O)cc2c(c1O)[C@@H]1O[C@H](CO)[C@@H](O)[C@H](O)[C@H]1OC2=O` yielded a solubility (mole fraction) (in DMSO, 298.15 K) of 0.0171, a solubility (mole fraction) (in DMSO, 303.15 K) of 0.0184 and a solubility (mole fraction) (in DMSO, 308.15 K) of 0.02. For the same molecule, the solubility (mole fraction) (in DMSO, 313.15 K) was 0.0214, the solubility (mole fraction) (in DMSO, 318.15 K) was 0.023 and the solubility (mole fraction) (in PEG-400, 298.15 K) was 0.0236. It also gave a solubility (mole fraction) (in PEG-400, 303.15 K) of 0.0277, a solubility (mole fraction) (in PEG-400, 308.15 K) of 0.032 and a solubility (mole fraction) (in PEG-400, 313.15 K) of 0.0367. The solubility (mole fraction) (in PEG-400, 318.15 K) was 0.0415, the solubility (mole fraction) (in ethanol, 298.15 K) was 0.00469 and the solubility (mole fraction) (in ethanol, 303.15 K) was 0.00537. The solubility (mole fraction) (in ethanol, 308.15 K) was 0.00612, the solubility (mole fraction) (in ethanol, 313.15 K) was 0.00687 and the solubility (mole fraction) (in ethanol, 318.15 K) was 0.00777. For the same molecule, the solubility (mole fraction) (in ethyl acetate, 298.15 K) was 0.000228, the solubility (mole fraction) (in ethyl acetate, 303.15 K) was 0.000311 and the solubility (mole fraction) (in ethyl acetate, 308.15 K) was 0.000405. It also gave a solubility (mole fraction) (in ethyl acetate, 313.15 K) of 0.000526, a solubility (mole fraction) (in ethyl acetate, 318.15 K) of 0.000671 and a solubility (mole fraction) (in ethylene glycol, 298.15 K) of 0.00774. It also gave a solubility (mole fraction) (in ethylene glycol, 303.15 K) of 0.00859, a solubility (mole fraction) (in ethylene glycol, 308.15 K) of 0.00944 and a solubility (mole fraction) (in ethylene glycol, 313.15 K) of 0.0105. For the same molecule, the solubility (mole fraction) (in ethylene glycol, 318.15 K) was 0.0117, the solubility (mole fraction) (in isopropanol, 298.15 K) was 0.00129 and the solubility (mole fraction) (in isopropanol, 303.15 K) was 0.00139. The solubility (mole fraction) (in isopropanol, 308.15 K) was 0.00149, the solubility (mole fraction) (in isopropanol, 313.15 K) was 0.00159 and the solubility (mole fraction) (in isopropanol, 318.15 K) was 0.00169. The solubility (mole fraction) (in n-butanol, 298.15 K) was 0.000379, the solubility (mole fraction) (in n-butanol, 303.15 K) was 0.000404 and the solubility (mole fraction) (in n-butanol, 308.15 K) was 0.000431. For the same molecule, the solubility (mole fraction) (in n-butanol, 313.15 K) was 0.000458, the solubility (mole fraction) (in n-butanol, 318.15 K) was 0.000492 and the solubility (mole fraction) (in propylene glycol, 298.15 K) was 0.00777. For the same molecule, the solubility (mole fraction) (in propylene glycol, 303.15 K) was 0.00873, the solubility (mole fraction) (in propylene glycol, 308.15 K) was 0.00966 and the solubility (mole fraction) (in propylene glycol, 313.15 K) was 0.0108. It also gave a solubility (mole fraction) (in propylene glycol, 318.15 K) of 0.0119, a solubility (mole fraction) (in sec-butanol, 298.15 K) of 0.000384 and a solubility (mole fraction) (in sec-butanol, 303.15 K) of 0.00041. The solubility (mole fraction) (in sec-butanol, 308.15 K) was 0.00044, the solubility (mole fraction) (in sec-butanol, 313.15 K) was 0.000473 and the solubility (mole fraction) (in sec-butanol, 318.15 K) was 0.000514. For the same molecule, the solubility (mole fraction) (in transcutol, 298.15 K) was 0.0145, the solubility (mole fraction) (in transcutol, 303.15 K) was 0.0166 and the solubility (mole fraction) (in transcutol, 308.15 K) was 0.0186. It also gave a solubility (mole fraction) (in transcutol, 313.15 K) of 0.0207, a solubility (mole fraction) (in transcutol, 318.15 K) of 0.0228 and a solubility (mole fraction) (in water, 298.15 K) of 7.57e-05. The solubility (mole fraction) (in water, 303.15 K) was 9.93e-05, the solubility (mole fraction) (in water, 308.15 K) was 0.000125 and the solubility (mole fraction) (in water, 313.15 K) was 0.000155. It also gave a solubility (mole fraction) (in water, 318.15 K) of 0.000187.
